From patent US20240400564A1 (Syndax Pharmaceuticals, Inc, priority 2021, published 2024)

Columns and labels:
[1] = system: MLLr leukemia cell line MV4-11; experiment: Cell proliferation assay MV4;11 (CellTiter-Glo, 72 hours); type: cell-based; settings: Homo sapiens; MV4-11 cells, 72 hours, CellTiter-Glo; read-out: MV4; 11 IC50
Procedure, shortened: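 Cells in IMDM/10% FBS, seeded from a 15,000 cells/ml suspension, were exposed for 72 h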

[2] = target: T1, Menin-MLL (Homo sapiens, UniProt O00255); experiment: Determination of binding constants to Menin-MLL (HTRF, EC50 and Ki); settings: 0.25 nM H-FL-Menin, 3.2 nM FITC-MLL-4-43, 24 hr incubation
T1 sequence (O00255 1-610): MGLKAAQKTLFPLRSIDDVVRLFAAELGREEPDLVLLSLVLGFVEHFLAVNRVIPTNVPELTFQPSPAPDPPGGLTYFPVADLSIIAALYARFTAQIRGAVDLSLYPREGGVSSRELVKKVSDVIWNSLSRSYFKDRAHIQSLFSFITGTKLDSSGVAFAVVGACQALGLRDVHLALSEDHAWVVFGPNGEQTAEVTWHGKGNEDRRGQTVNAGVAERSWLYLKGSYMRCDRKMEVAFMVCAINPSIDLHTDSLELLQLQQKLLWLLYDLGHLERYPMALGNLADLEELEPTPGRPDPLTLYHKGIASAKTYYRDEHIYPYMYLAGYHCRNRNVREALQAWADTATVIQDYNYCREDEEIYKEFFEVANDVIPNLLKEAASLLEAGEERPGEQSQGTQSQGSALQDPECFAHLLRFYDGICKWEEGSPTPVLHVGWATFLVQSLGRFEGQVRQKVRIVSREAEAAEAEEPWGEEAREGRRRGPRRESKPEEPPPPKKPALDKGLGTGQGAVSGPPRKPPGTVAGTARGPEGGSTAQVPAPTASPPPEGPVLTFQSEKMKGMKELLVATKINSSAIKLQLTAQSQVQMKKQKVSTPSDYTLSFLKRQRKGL

[3] = target: T2, human Menin and N-terminal portion of human MLL (amino acids 4-43) (Homo sapiens, UniProt O00255); experiment: Menin-MLL competition assay (HTRF); type: binding; settings: 1 hr incubation
T2 construct: H-FL-Menin diluted to 4 nM in assay buffer
T2 sequence (O00255 1-610): T1 sequence (O00255 1-610)
Procedure, shortened: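 HTRF competition: 1 nM His-tagged full-length Menin with 2 nM Tb-anti-His6 and 1 nM FITC-MLL(4-43), 1 h at room temperature in Tris pH 7.4 buffer with DTT, BSA, Triton X-100; 3.16-fold compound series, 2% DMSO. Ratio 520/485 normalized to DMSO and 1 μM reference-compound controls for IC50.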

[4] = target: hERG (Homo sapiens, UniProt Q12809); experiment: Patch clamp assay (hERG tail currents, whole-cell)
Sequence of hERG (Q12809 whole entry): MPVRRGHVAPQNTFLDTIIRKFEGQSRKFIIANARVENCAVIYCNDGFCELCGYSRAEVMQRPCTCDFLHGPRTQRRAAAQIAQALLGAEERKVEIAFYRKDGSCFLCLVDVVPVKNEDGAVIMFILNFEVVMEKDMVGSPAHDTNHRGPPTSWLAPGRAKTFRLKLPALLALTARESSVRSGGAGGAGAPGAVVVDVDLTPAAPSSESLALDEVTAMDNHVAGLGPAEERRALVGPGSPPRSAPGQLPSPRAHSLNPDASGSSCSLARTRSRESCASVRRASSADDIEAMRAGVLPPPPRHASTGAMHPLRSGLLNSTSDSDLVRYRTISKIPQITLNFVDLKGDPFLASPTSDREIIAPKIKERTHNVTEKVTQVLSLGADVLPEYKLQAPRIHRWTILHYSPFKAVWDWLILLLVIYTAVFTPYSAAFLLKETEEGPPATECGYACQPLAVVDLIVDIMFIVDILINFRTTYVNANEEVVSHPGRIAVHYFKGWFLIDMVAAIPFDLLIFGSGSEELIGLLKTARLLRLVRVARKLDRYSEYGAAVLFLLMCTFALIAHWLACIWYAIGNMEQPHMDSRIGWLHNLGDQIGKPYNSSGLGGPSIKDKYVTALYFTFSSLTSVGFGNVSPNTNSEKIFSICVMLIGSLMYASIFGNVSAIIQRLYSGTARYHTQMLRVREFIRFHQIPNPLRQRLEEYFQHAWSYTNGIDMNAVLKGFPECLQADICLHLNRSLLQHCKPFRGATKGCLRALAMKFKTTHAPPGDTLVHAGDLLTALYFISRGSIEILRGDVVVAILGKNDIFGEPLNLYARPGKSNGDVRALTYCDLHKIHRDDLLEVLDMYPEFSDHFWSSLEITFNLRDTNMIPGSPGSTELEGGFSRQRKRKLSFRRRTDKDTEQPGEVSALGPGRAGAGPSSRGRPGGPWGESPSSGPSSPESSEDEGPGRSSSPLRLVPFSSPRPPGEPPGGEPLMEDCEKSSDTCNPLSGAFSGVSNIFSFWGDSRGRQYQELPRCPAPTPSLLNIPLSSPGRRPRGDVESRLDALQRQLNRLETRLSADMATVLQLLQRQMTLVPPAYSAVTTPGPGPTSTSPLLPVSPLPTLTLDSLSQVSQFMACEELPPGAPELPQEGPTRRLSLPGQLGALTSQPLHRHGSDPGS

Row | Compound | IC50 [3] [nM] | hERG % Remaining ([4]; 10 μM compound) | hERG % Remaining ([4]; 30 μM compound) | further results
1 | CCS(=N)(=O)N[C@@H]1CC[C@@H](CN2CCC3(CC2)CN(c2ncncc2Oc2ccc(F)cc2C(=O)N(C(C)C)C(C)C)C3)OC1 (mixture of isomers) [Example 225, 2-((4-(7-(((2S,5R)-5-(Ethylsulfonoamidimidamido)tetrahydro-2H-pyran-2-yl)methyl)-2,7-diazaspiro[3.5]nonan-2-yl)pyrimidin-5-yl)oxy)-5-fluoro-N,N-diisopropylbenzamide] | – | – | – | IC50 [1]: 100 to 1000 nM; Ki [2]: < 1 nM
2 | CCN(C(=O)c1cc(F)ccc1Oc1cncnc1N1CC2(CCN(C[C@@H]3CC[C@@H](NS(=O)(=O)C4CCOC4)CO3)CC2)C1)C(C)C (stereo partly drawn) [Example 10, N-Ethyl-5-fluoro-N-isopropyl-2-((4-(7-(((2S,5R)-5-((tetrahydrofuran)-3-sulfonamido)tetrahydro-2H-pyran-2-yl)methyl)-2,7-diazaspiro[3.5]nonan-2-yl)pyrimidin-5-yl)oxy)benzamide] | < 100 | – | – | IC50 [1]: < 100 nM
3 | CC(C)N(C(=O)c1cc(F)ccc1Oc1cncnc1N1CC2(CCN(C[C@@H]3CC[C@@H](NS(C)(=O)=O)CO3)CC2)C1)C1CC1 [Example 18, N-Cyclopropyl-5-fluoro-N-isopropyl-2-((4-(7-(((2S,5R)-5-(methylsulfonamido)tetrahydro-2H-pyran-2-yl)methyl)-2,7-diazaspiro[3.5]nonan-2-yl)pyrimidin-5-yl)oxy)benzamide] | < 100 | – | – | IC50 [1]: < 100 nM
4 | CC(C)N(C(=O)c1cc(F)ccc1Oc1cncnc1N1CC2(CCN(C[C@@H]3CC[C@@H](NS(=O)(=O)C4CC4)CO3)CC2)C1)C1CC1 [Example 21, 2-((4-(7-(((2S,5R)-5-(Cyclopropanesulfonamido)tetrahydro-2H-pyran-2-yl)methyl)-2,7-diazaspiro[3.5]nonan-2-yl)pyrimidin-5-yl)oxy)-N-cyclopropyl-5-fluoro-N-isopropylbenzamide] | < 100 | ++ (233% and ≤66%) | + (<33%) | –
5 | CCS(=O)(=O)N[C@@H]1CC[C@@H](CN2CCC3(CC2)CN(c2ncncc2Oc2ccc(F)cc2C(=O)N(C(C)C)[C@H]2CCOC2)C3)OC1 [Example 33, 2-((4-(7-(((2S,5R)-5-(Ethylsulfonamido)tetrahydro-2H-pyran-2-yl)methyl)-2,7-diazaspiro[3.5]nonan-2-yl)pyrimidin-5-yl)oxy)-5-fluoro-N-isopropyl-N-((S)-tetrahydrofuran-3-yl)benzamide] | < 100 | +++ (≥66%) | +++ (≥66%) | –
6 | CCS(=O)(=O)N[C@@H]1CC[C@@H](CN2CCC3(CC2)CN(c2ncncc2Oc2ccc(F)cc2C(=O)N(CC(F)F)C(C)C)C3)OC1 [Example 34, N-(2,2-Difluoroethyl)-2-((4-(7-(((2S,5R)-5-(ethylsulfonamido)tetrahydro-2H-pyran-2-yl)methyl)-2,7-diazaspiro[3.5]nonan-2-yl)pyrimidin-5-yl)oxy)-5-fluoro-N-isopropylbenzamide] | < 100 | +++ (≥66%) | ++ (233% and ≤66%) | hERG % Remaining ([4]; 1 μM compound): +++ (≥66%); hERG % Remaining ([4]; 3 μM compound): +++ (≥66%); hERG % Remaining ([4]; 100 μM compound): + (<33%)
7 | CCS(=O)(=O)N[C@@H]1CC[C@@H](CN2CCC3(CC2)CN(c2ncncc2Oc2ccc(F)cc2C(=O)N(CCC#N)C(C)C)C3)OC1 [Example 43, N-(2-Cyanoethyl)-2-((4-(7-(((2S,5R)-5-(ethylsulfonamido)tetrahydro-2H-pyran-2-yl)methyl)-2,7-diazaspiro[3.5]nonan-2-yl)pyrimidin-5-yl)oxy)-5-fluoro-N-isopropylbenzamide] | < 100 | +++ (≥66%) | ++ (233% and ≤66%) | –
8 | CCS(=O)(=O)N[C@@H]1CC[C@@H](CN2CCC3(CC2)CN(c2ncncc2Oc2ccc(F)cc2C(=O)N(C(C)C)C2CC(F)(F)C2)C3)OC1 [Example 44, N-(3,3-Difluorocyclobutyl)-2-((4-(7-(((2S,5R)-5-(ethylsulfonamido)tetrahydro-2H-pyran-2-yl)methyl)-2,7-diazaspiro[3.5]nonan-2-yl)pyrimidin-5-yl)oxy)-5-fluoro-N-isopropylbenzamide] | < 100 | +++ (≥66%) | ++ (233% and ≤66%) | –
9 | CCN(C(=O)c1cc(F)ccc1Oc1cncnc1N1CC2(CCN(C[C@@H]3CC[C@@H](NS(=O)(=O)c4ccccc4)CO3)CC2)C1)C(C)C [Example 45, N-Ethyl-5-fluoro-N-isopropyl-2-((4-(7-(((2S,5R)-5-(phenylsulfonamido)tetrahydro-2H-pyran-2-yl)methyl)-2,7-diazaspiro[3.5]nonan-2-yl)pyrimidin-5-yl)oxy)benzamide] | < 100 | ++ (233% and ≤66%) | + (<33%) | –
10 | CC(C)N(CC(F)F)C(=O)c1cc(F)ccc1Oc1cncnc1N1CC2(CCN(C[C@@H]3CC[C@@H](NS(=O)(=O)C4CC4)CO3)CC2)C1 [Example 47, 2-((4-(7-(((2S,5R)-5-(Cyclopropanesulfonamido)tetrahydro-2H-pyran-2-yl)methyl)-2,7-diazaspiro[3.5]nonan-2-yl)pyrimidin-5-yl)oxy)-N-(2,2-difluoroethyl)-5-fluoro-N-isopropylbenzamide] | < 100 | +++ (≥66%) | ++ (233% and ≤66%) | –
11 | CCN(C(=O)c1cc(F)ccc1Oc1cncnc1N1CC2(CCN(C[C@@H]3CC[C@@H](NS(=O)(=O)N(C)C)CO3)CC2)C1)C(C)C [Example 49, 2-((4-(7-(((2S,5R)-5-((N,N-Dimethylsulfamoyl)amino)tetrahydro-2H-pyran-2-yl)methyl)-2,7-diazaspiro[3.5]nonan-2-yl)pyrimidin-5-yl)oxy)-N-ethyl-5-fluoro-N-isopropylbenzamide] | < 100 | +++ (≥66%) | +++ (≥66%) | –
12 | CCS(=O)(=O)N[C@@H]1CC[C@@H](CN2CCC3(CC2)CN(c2ncncc2Oc2ccc(F)cc2C(=O)N(C(C)C)[C@H]2C[C@@H](O)C2)C3)OC1 [Example 50, 2-((4-(7-(((2S,5R)-5-(Ethylsulfonamido)tetrahydro-2H-pyran-2-yl)methyl)-2,7-diazaspiro[3.5]nonan-2-yl)pyrimidin-5-yl)oxy)-5-fluoro-N-((1s,3s)-3-hydroxycyclobutyl)-N-isopropylbenzamide] | < 100 | – | – | IC50 [1]: < 100 nM
13 | CCN(C(=O)c1cc(F)ccc1Oc1cncnc1N1CC2(CCN(C[C@H]3CC[C@H](NS(=O)(=O)CC)CO3)CC2)C1)C(C)C [Example 52, N-Ethyl-2-((4-(7-(((2R,5S)-5-(ethylsulfonamido)tetrahydro-2H-pyran-2-yl)methyl)-2,7-diazaspiro[3.5]nonan-2-yl)pyrimidin-5-yl)oxy)-5-fluoro-N-isopropylbenzamide] | – | – | – | EC50 [2]: ≤ 50 nM
14 | CC(C)N(C(=O)c1cc(F)ccc1Oc1cncnc1N1CC2(CCN(C[C@@H]3CC[C@@H](NS(=O)(=O)C(C)C)CO3)CC2)C1)[C@@H]1CCOC1 [Example 132, 5-Fluoro-N-isopropyl-2-((4-(7-(((2S,5R)-5-((1-methylethyl)sulfonamido)tetrahydro-2H-pyran-2-yl)methyl)-2,7-diazaspiro[3.5]nonan-2-yl)pyrimidin-5-yl)oxy)-N-((R)-tetrahydrofuran-3-yl)benzamide] | – | – | – | EC50 [2]: 111 nM
15 | CCN(C(=O)c1cc(F)ccc1Oc1cncnc1N1CC2(CCN(C[C@@H]3CC[C@@H](NC(=O)Nc4ccccc4)CO3)CC2)C1)C(C)C [Example 215, N-Ethyl-5-fluoro-N-isopropyl-2-((4-(7-(((2S,5R)-5-(3-phenylureido)tetrahydro-2H-pyran-2-yl)methyl)-2,7-diazaspiro[3.5]nonan-2-yl)pyrimidin-5-yl)oxy)benzamide] | – | – | – | Menin-MLL Ki HTRF Assay: EC50 (nM) [2]: ++ (250 nM and <100 nM)
